In brackets after ≈: the same amount, converted by molar mass.
Legend:
[1] = Visual comparison of carfilzomib in water, cyclodextrin and cyclodextrin-free formulations (FIG. 2); assay type: physicochemical; conditions: CFZ-API concentration of 2 mg/mL
Text: Carfilzomib (CFZ) is a proteasomal inhibitor and active ingredient of KYPROLIS®, a lyophilized drug product which is for the treatment of multiple myeloma. The current commercial formulation of KYPROLIS contains CAPTISOL®, which is a cyclodextrin used to help solubility the CFZ-API. The present invention provides a stable, cyclodextrin-free formulations for CFZ-API in an aqueous solution which is suitable for injection. FIG. 2 illustrates (a) insoluble CFZ-API in water (b) current commercial KYPROLIS formulation containing CAPTISOL (middle vial); and (c) the cyclodextrin free chlorobutanol formulation of the invention (right vial). Each sample contains CFZ-API concentration of 2 mg/mL.

[2] = physchem; conditions: pH 7, water

Visual solubility in water [1]: insoluble
solubility [2]: 2 µg/mL (≈ 2.78 µM)
SMILES: CC(C)C[C@H](NC(=O)[C@H](CCc1ccccc1)NC(=O)CN1CCOCC1)C(=O)N[C@@H](Cc1ccccc1)C(=O)N[C@@H](CC(C)C)C(=O)[C@@]1(C)CO1 [CFZ-API, Carfilzomib]
